Assay results published in the NIST ThermoML archive (doi:10.1016/j.tca.2006.04.022).
Numbers after ± are expanded uncertainties.

Assay: molar heat capacity at constant pressure
Conditions: 101.33 kPa, Vacuum adiabatic calorimetry

CCOS(=O)(=O)[O-].CCn1cc[n+](C)c1 [1-ethyl-3-methylimidazolium ethyl sulfate]
Conditions | molar heat capacity at constant pressure [J/K/mol]
79.23 K, Glass | 127.8 ± 8.9
79.7 K, Glass | 128.6 ± 9
80.51 K, Glass | 129.4 ± 9.1
81.67 K, Glass | 130.9 ± 9.2
82.84 K, Glass | 131.5 ± 9.2
83.99 K, Glass | 133.2 ± 9.3
85.31 K, Glass | 135.2 ± 9.5
86.78 K, Glass | 136.3 ± 9.5
88.25 K, Glass | 137.9 ± 9.7
89.7 K, Glass | 138.8 ± 9.7
91.13 K, Glass | 141.2 ± 9.9
92.56 K, Glass | 142.2 ± 10
93.97 K, Glass | 143.4 ± 10
95.39 K, Glass | 145.2 ± 10
96.79 K, Glass | 146.4 ± 10
98.17 K, Glass | 147.5 ± 10
99.54 K, Glass | 149.6 ± 10
100.91 K, Glass | 151 ± 11
102.27 K, Glass | 151.6 ± 11
103.61 K, Glass | 152.9 ± 11
104.96 K, Glass | 154.3 ± 11
106.29 K, Glass | 155.3 ± 11
107.62 K, Glass | 155.8 ± 11
108.95 K, Glass | 157.3 ± 11
110.26 K, Glass | 158.3 ± 11
111.57 K, Glass | 159.1 ± 11
112.87 K, Glass | 160.6 ± 11
114.17 K, Glass | 162.4 ± 11
115.46 K, Glass | 163.1 ± 11
116.74 K, Glass | 163.6 ± 12
118.02 K, Glass | 165.2 ± 12
119.29 K, Glass | 166.8 ± 12
120.55 K, Glass | 167.9 ± 12
121.82 K, Glass | 168.9 ± 12
123.06 K, Glass | 170.1 ± 12
124.32 K, Glass | 170.7 ± 12
125.55 K, Glass | 172.1 ± 12
126.8 K, Glass | 173.9 ± 12
128.22 K, Glass | 174.7 ± 12
129.84 K, Glass | 176.7 ± 12
131.45 K, Glass | 178.2 ± 12
133.04 K, Glass | 178.9 ± 12
134.63 K, Glass | 180 ± 13
136.21 K, Glass | 181.3 ± 13
137.77 K, Glass | 183.2 ± 13
139.34 K, Glass | 184.6 ± 13
140.89 K, Glass | 185.1 ± 13
142.73 K, Glass | 187.4 ± 13
144.86 K, Glass | 189.6 ± 13
146.97 K, Glass | 191.6 ± 13
149.07 K, Glass | 194.6 ± 14
151.16 K, Glass | 196.7 ± 14
153.21 K, Glass | 198.7 ± 14
155.27 K, Glass | 200.9 ± 14
157.3 K, Glass | 202.8 ± 14
159.33 K, Glass | 203.6 ± 14
161.34 K, Glass | 205.9 ± 14
163.34 K, Glass | 208.6 ± 15
165.33 K, Glass | 210.2 ± 15
167.3 K, Glass | 212.6 ± 15
169.27 K, Glass | 214.9 ± 15
171.23 K, Glass | 216.9 ± 15
173.18 K, Glass | 218.1 ± 15
175.11 K, Glass | 220.4 ± 15
177.05 K, Glass | 223.2 ± 16
178.98 K, Glass | 226 ± 16
180.91 K, Glass | 229.3 ± 16
182.83 K, Glass | 231.6 ± 16
184.74 K, Glass | 234.3 ± 16
186.65 K, Glass | 238 ± 17
188.56 K, Glass | 243.9 ± 17
190.42 K, Glass | 251.8 ± 18
192.11 K, Glass | 273.4 ± 19
193.57 K, Glass | 313.7 ± 22
194.94 K, Glass | 340.7 ± 24
196.36 K, Liquid | 346.8 ± 24
197.81 K, Liquid | 347.7 ± 24
199.27 K, Liquid | 348.4 ± 24
200.76 K, Liquid | 349.4 ± 24
202.25 K, Liquid | 349.9 ± 24
203.79 K, Liquid | 350.5 ± 24
205.33 K, Liquid | 350.9 ± 25
206.9 K, Liquid | 351.5 ± 25
208.47 K, Liquid | 351.9 ± 25
210.06 K, Liquid | 352.4 ± 25
211.66 K, Liquid | 352.8 ± 25
213.18 K, Liquid | 353.2 ± 25
214.52 K, Liquid | 353.7 ± 25
215.86 K, Liquid | 354.1 ± 25
217.18 K, Liquid | 354.5 ± 25
218.5 K, Liquid | 354.9 ± 25
219.81 K, Liquid | 355.4 ± 25
221.12 K, Liquid | 355.7 ± 25
222.41 K, Liquid | 356.1 ± 25
223.71 K, Liquid | 356.5 ± 25
225 K, Liquid | 356.8 ± 25
226.27 K, Liquid | 357.1 ± 25
227.54 K, Liquid | 357.5 ± 25
228.79 K, Liquid | 357.8 ± 25
230.03 K, Liquid | 358.1 ± 25
231.26 K, Liquid | 358.4 ± 25
232.46 K, Liquid | 359 ± 25
233.66 K, Liquid | 359.3 ± 25
234.84 K, Liquid | 359.6 ± 25
236.02 K, Liquid | 359.8 ± 25
237.19 K, Liquid | 360.2 ± 25
238.37 K, Liquid | 360.5 ± 25
239.54 K, Liquid | 361 ± 25
240.7 K, Liquid | 361.3 ± 25
241.86 K, Liquid | 361.5 ± 25
243.01 K, Liquid | 361.9 ± 25
244.15 K, Liquid | 362.2 ± 25
245.29 K, Liquid | 362.5 ± 25
246.43 K, Liquid | 363.1 ± 25
247.58 K, Liquid | 363.5 ± 25
248.73 K, Liquid | 363.9 ± 26
249.88 K, Liquid | 364.2 ± 26
251.02 K, Liquid | 364.5 ± 26
252.17 K, Liquid | 364.8 ± 26
253.31 K, Liquid | 365.5 ± 26
254.45 K, Liquid | 365.8 ± 26
255.6 K, Liquid | 366.1 ± 26
256.73 K, Liquid | 366.3 ± 26
257.87 K, Liquid | 366.8 ± 26
259 K, Liquid | 367.1 ± 26
260.13 K, Liquid | 367.4 ± 26
261.27 K, Liquid | 367.6 ± 26
262.4 K, Liquid | 367.8 ± 26
263.53 K, Liquid | 368 ± 26
264.66 K, Liquid | 368.3 ± 26
265.8 K, Liquid | 368.7 ± 26
266.93 K, Liquid | 369.1 ± 26
268.06 K, Liquid | 369.4 ± 26
269.19 K, Liquid | 369.5 ± 26
270.33 K, Liquid | 369.9 ± 26
271.45 K, Liquid | 370.3 ± 26
272.58 K, Liquid | 370.8 ± 26
273.71 K, Liquid | 371 ± 26
274.83 K, Liquid | 371.2 ± 26
275.94 K, Liquid | 371.5 ± 26
277.06 K, Liquid | 371.8 ± 26
278.18 K, Liquid | 372 ± 26
279.28 K, Liquid | 372.4 ± 26
280.39 K, Liquid | 373 ± 26
281.5 K, Liquid | 373.1 ± 26
282.62 K, Liquid | 373.5 ± 26
283.72 K, Liquid | 373.8 ± 26
284.83 K, Liquid | 374.2 ± 26
285.95 K, Liquid | 374.5 ± 26
287.05 K, Liquid | 374.7 ± 26
288.15 K, Liquid | 375 ± 26
289.26 K, Liquid | 375.4 ± 26
290.37 K, Liquid | 375.6 ± 26
291.47 K, Liquid | 376 ± 26
292.58 K, Liquid | 376.1 ± 26
293.69 K, Liquid | 376.5 ± 26
294.79 K, Liquid | 376.8 ± 26
295.9 K, Liquid | 377 ± 26
297 K, Liquid | 377.4 ± 26
298.11 K, Liquid | 378 ± 26
299.22 K, Liquid | 378.2 ± 26
300.32 K, Liquid | 378.6 ± 26
301.43 K, Liquid | 378.9 ± 26
302.54 K, Liquid | 379.1 ± 26
303.64 K, Liquid | 379.3 ± 27
304.74 K, Liquid | 379.6 ± 27
305.86 K, Liquid | 379.9 ± 27
306.96 K, Liquid | 380.1 ± 27
308.07 K, Liquid | 380.3 ± 27
309.18 K, Liquid | 380.4 ± 27
310.29 K, Liquid | 380.8 ± 27
311.4 K, Liquid | 380.9 ± 27
312.52 K, Liquid | 381.2 ± 27
313.63 K, Liquid | 381.6 ± 27
314.75 K, Liquid | 381.8 ± 27
315.85 K, Liquid | 382 ± 27
316.97 K, Liquid | 382.3 ± 27
318.08 K, Liquid | 382.7 ± 27
319.19 K, Liquid | 383 ± 27
320.31 K, Liquid | 383.1 ± 27
321.42 K, Liquid | 383.4 ± 27
322.53 K, Liquid | 383.6 ± 27
323.66 K, Liquid | 383.9 ± 27
324.75 K, Liquid | 383.9 ± 27
325.84 K, Liquid | 384.4 ± 27
326.92 K, Liquid | 384.6 ± 27
327.99 K, Liquid | 384.8 ± 27
329.08 K, Liquid | 384.9 ± 27
330.17 K, Liquid | 385.1 ± 27
331.26 K, Liquid | 385.6 ± 27
332.35 K, Liquid | 385.9 ± 27
333.43 K, Liquid | 386.1 ± 27
334.52 K, Liquid | 386.5 ± 27
335.6 K, Liquid | 386.6 ± 27
336.68 K, Liquid | 386.9 ± 27
337.77 K, Liquid | 387.3 ± 27
338.86 K, Liquid | 387.4 ± 27
339.94 K, Liquid | 387.8 ± 27
341.04 K, Liquid | 388.1 ± 27
342.13 K, Liquid | 388.3 ± 27
343.22 K, Liquid | 388.6 ± 27
344.31 K, Liquid | 388.9 ± 27
345.4 K, Liquid | 389.2 ± 27
346.49 K, Liquid | 389.5 ± 27
347.58 K, Liquid | 389.7 ± 27
348.65 K, Liquid | 390 ± 27
349.73 K, Liquid | 390.2 ± 27
350.82 K, Liquid | 390.5 ± 27
351.91 K, Liquid | 390.8 ± 27
353.01 K, Liquid | 391.3 ± 27
354.11 K, Liquid | 391.6 ± 27
355.22 K, Liquid | 392 ± 27
356.31 K, Liquid | 392.3 ± 28
357.42 K, Liquid | 392.5 ± 28
358.53 K, Liquid | 392.7 ± 28
359.63 K, Liquid | 392.8 ± 28
360.75 K, Liquid | 392.9 ± 28
361.87 K, Liquid | 393.1 ± 28
363 K, Liquid | 393.4 ± 28
364.13 K, Liquid | 393.5 ± 28
365.29 K, Liquid | 393.6 ± 28
366.38 K, Liquid | 393.9 ± 28
367.47 K, Liquid | 394.1 ± 28
368.52 K, Liquid | 394.5 ± 28
369.63 K, Liquid | 394.7 ± 28
370.76 K, Liquid | 394.9 ± 28
371.78 K, Liquid | 395.1 ± 28
372.82 K, Liquid | 395.3 ± 28
373.9 K, Liquid | 395.6 ± 28
374.98 K, Liquid | 395.8 ± 28
376.02 K, Liquid | 396.2 ± 28
377.08 K, Liquid | 396.5 ± 28
378.13 K, Liquid | 396.8 ± 28
379.52 K, Liquid | 397.1 ± 28
380.42 K, Liquid | 397.3 ± 28
381.38 K, Liquid | 397.5 ± 28
382.35 K, Liquid | 397.8 ± 28
383.43 K, Liquid | 398 ± 28
384.34 K, Liquid | 398.2 ± 28
385.25 K, Liquid | 398.5 ± 28
386.14 K, Liquid | 398.8 ± 28
387.09 K, Liquid | 399.1 ± 28
388.01 K, Liquid | 399.5 ± 28
388.98 K, Liquid | 399.7 ± 28
389.95 K, Liquid | 399.9 ± 28
